Data set [1] deals with phenylquinone-induced writhing. In words: Phenylquinone writhing test (analgesia). Format: in vivo, mouse (Carworth CF1 S female). Conditions: Mus musculus. An excerpt: This mouse test is predictive of analgesic response in humans. [E. Siegmund, R. Cadmus and G. Lee, Proc. Soc.
ED50 values were obtained graphically from the data.
On the technique in general: In writhing tests, fewer writhes than in controls are read as antinociception.

A further data set is described as follows: in vivo. The following applies: mouse, in vivo, po. The method, then: (§1) Groups of five Carworth CF1 S female mice, 16-20 g each, were fasted 16-22 hours before use. The mice were put in opaque plastic "shoe-box" cages 15-30 min. before injection, and then treated orally with 4, 12, 36, 108 and 324 mg/kg of the compound to be tested as a 13 mg/ml solution in 1% aqueous distilled water solution of methylcellulose (Methocel®). Each dose was given in a standard volume of 0.45 ml. Observations were made at 0.5, 2 and 24 hours after dosing. ED50 values were calculated for each parameter including death (LD50). The ED50 and LD50 values are the doses at which 50% of the naimals would be expected to respond.
(§2) The mouse is placed on a stainless steel wire mesh screen (8 × 12 inches, 3 mesh per inch, 1/4 inch mesh openings) "shoe-box" lid (1 inch high) and is observed for normal activities, such as nose movements, head movements with apparent visual examination of the area, and/or walking around on the screen. Absence of or marked depression of these activities for 5 seconds constitutes loss of exploratory activity.
(§3) The mouse is picked up by the tail and placed on the screen with its head facing the observer. Bilateral eyelid closure of 50% or more two seconds after placement is considered ptosis.
(§4) The mouse is placed with its front paws on the edge of a stainless steel "shoe-box" cover, 1 inch high, covered with adhesive tape. Failure to remove both paws from the cover's edge within 5 seconds constitutes catatonia.
(§5) The observer gently strokes the abdominal musculature of the mouse with thumb and forefinger. Flaccidity (or rarely, tenseness) is recorded.
(§6) The mouse is gently swung by the tail toward a horizontal 12 gauge wire tautly stretched 25 cm above the bench. After the mouse grasps the wire with its forepaws, its posterior end is held directly below the wire. A normal mouse grasps the wire with its forepaws and immediately lifts its hind limbs to the wire. Failure to grasp the wire with the forepaws in both trials constitutes loss of the grip reflex; failure to lift the hind limbs to grasp the wire with at least one hind paw within 5 seconds constitutes loss of the lift reflex.
(§7) The mouse is placed on the bar 10-20 cm horizontally and 9 cm vertically from a Galton whistle adjusted for 13 kc (5 mm on the whistle scale) and is subjected to several short bursts of sound.
(§8) An effective tranquilizer should induce little or no tremor response. […] Tremors include fine or coarse and intermittent or continuous tremors.

A further data set concerns female white mice. In words: animal or person. The following applies: Mus musculus, po, oral, mice. The method, then:
as §1, §2, §3, §4, §5, §6, §7, §8

The mark [2] stands for this setting: read-out: Catatonia ED50, Table 1.
Setting [3] is: read-out: Exploratory Loss Visual ED50, Table 1.
[4] abbreviates: read-out: Muscle Tone ED50, Table 1.
Where [5] appears, read: read-out: Reflexes Grip ED50, Table 1.
The mark [6] stands for this setting: read-out: Reflexes Lift ED50, Table 1.
Setting [7] is: read-out: Reflexes Pinna ED50, Table 1.
Where [8] appears, read: read-out: Catatonia ED50, Table III.
Where [9] appears, read: read-out: Exploratory Loss Visual ED50, Table III.
Where [10] appears, read: read-out: Muscle Tone ED50, Table III.
Setting [11] is: read-out: Ptosis ED50, Table III.
Setting [12] is: read-out: Reflexes Grip ED50, Table III.
[13] abbreviates: read-out: Reflexes Lift ED50, Table III.
[14] abbreviates: read-out: Reflexes Pinna ED50, Table III.

Where a name gives a salt, the structure may show the parent alone. Read-outs that look alike come from different tables or passages of the source. Where only a bound is given, the exact number is not on record here.

As usually defined, the ED50 is the dose that gives a 50% effect, or the effect in half of the subjects. The term LD50 denotes the dose at which mortality reaches 50%. Turning to `c1csc(CN2C[C@@H]3c4ccccc4[C@@H]4C[C@@]3(C2)c2ccccc24)c1` (relative stereo) [Example 54, 2-(2-Thienylmethyl)-2,3,8,12b-tetrahydro-1H-3a,8-methanodibenzo[3,4:6,7]cyclohepta[1,2-c]pyrrole], the 50% effective dose (ED50) in data set [1] (po, Table 1, mice) is 27 mg/kg; in “in vivo”, above 324 mg/kg; in the data set with female white mice (setting [2]), 200 mg/kg; with female white mice (setting [3]) it was 200 mg/kg; in the data set with female white mice (setting [4]), 200 mg/kg; with female white mice (read-out: Ptosis ED50, Table 1), 60 mg/kg. In addition, the figures for the ED50 in the data set with female white mice (setting [5]), with female white mice (setting [6]) and in the data set with female white mice (setting [7]) were above 324 mg/kg, above 324 mg/kg and 200 mg/kg, respectively. In addition, the LD50 at 24 h in the data set “in vivo” is above 324 mg/kg.
Regarding `c1ccc([C@@H]2C[C@H]2CN2CC3c4ccccc4C4CC3(C2)c2ccccc24)cc1` (relative stereo) [Example 55, 2-(trans-2-Phenylcyclopropylmethyl)-2,3,8,12 b-tetrahydro-1H-3a,8-methanodibenzo[3,4:6,7]cyclohepta[1,2-c]pyrrole], the ED50 is 48 mg/kg in data set [1] (po, Table 1, mice); above 324 mg/kg in the data set “in vivo”; 200 mg/kg in the data set with female white mice (setting [2]); 100 mg/kg in the data set with female white mice (setting [3]); 100 mg/kg in the data set with female white mice (setting [4]); 36 mg/kg with female white mice (read-out: Ptosis ED50, Table 1). Moreover, the ED50 was above 324 mg/kg with female white mice (setting [5]), 200 mg/kg with female white mice (setting [6]) and 200 mg/kg in the data set on female white mice (setting [7]). Also, the LD50 at 24 h in “in vivo” is above 324 mg/kg.
With `CC(C)(C)N1C[C@@H]2c3ccccc3[C@@H]3C[C@@]2(C1)c1ccccc13` (relative stereo) [Example 56, 2-Tertiarybutyl-2,3,8,12b-tetrahydro-1H-3a,8-methanodibenzo[3,4:6,7]cyclohepta[1,2-c]pyrrole], the ED50 in data set [1] (Table 1, oral, mice) worked out at 45 mg/kg; in the data set “in vivo” (Tremors ED50, Table 1, mice), 200 mg/kg; with female white mice (setting [2]), 200 mg/kg; in the data set on female white mice (setting [3]), 200 mg/kg; with female white mice (setting [4]), 100 mg/kg; in the data set with female white mice (read-out: Ptosis ED50, Table 1), 100 mg/kg. The ED50 in the data set on female white mice (setting [5]) was determined as 100 mg/kg; with female white mice (setting [6]), 60 mg/kg; in the data set on female white mice (setting [7]), 200 mg/kg. Besides, in “in vivo”, the LD50 at 24 h was found to be 300 mg/kg.
For `CCCN1C[C@@H]2c3ccccc3[C@@H]3C[C@@]2(C1)c1ccccc13` (relative stereo) [Example 58, 2-n-Propyl-2,3,8,12b-tetrahydro-1H-3a,8-methanodibenzo[3,4:6,7]cyclohepta[1,2-c]pyrrole], the ED50 worked out at 2.9 mg/kg in data set [1] (Table 1, oral, mice); 7 mg/kg in the data set on female white mice (setting [2]); 7 mg/kg with female white mice (setting [3]); 7 mg/kg with female white mice (setting [4]); 7 mg/kg with female white mice (read-out: Ptosis ED50, Table 1); 60 mg/kg in the data set with female white mice (setting [5]). Further, the ED50 in the data set with female white mice (setting [6]) came out at 7 mg/kg; in the data set with female white mice (setting [7]) it was 4 mg/kg. This compound showed an LD50 at 24 h in “in vivo” of 200 mg/kg.
Consider `CCCCCN1C[C@@H]2c3ccccc3[C@@H]3C[C@@]2(C1)c1ccccc13` (relative stereo) [Example 59, 2-n-Pentyl-2,3,8,12b-tetrahydro-1H-3a,8-methanodibenzo[3,4:6,7]cyclohepta[1,2-c]pyrrole], for which the ED50 in data set [1] (Table 1, oral, mice) was determined as 8.2 mg/kg; in the data set with female white mice (setting [2]) it was 17 mg/kg; with female white mice (setting [3]), 8.4 mg/kg; in the data set on female white mice (setting [4]), 13 mg/kg; in the data set on female white mice (read-out: Ptosis ED50, Table 1) it was 4.5 mg/kg; with female white mice (setting [5]), 100 mg/kg. For the same compound, the ED50 is 19 mg/kg in the data set on female white mice (setting [6]) and 8 mg/kg in the data set with female white mice (setting [7]). In the data set “in vivo”, the median lethal dose (LD50) at 24 h is above 324 mg/kg.
Regarding `CC(C)CCN1C[C@@H]2c3ccccc3[C@@H]3C[C@@]2(C1)c1ccccc13` (relative stereo) [Example 60, 2-(3-Methylbutyl)-2,3,8,12b-tetrahydro-1H-3a, 8-methanodibenzo[3,4:6,7]cyclohepta[1,2-c]pyrrole], the ED50 in data set [1] (Table 1, oral, mice) was 15 mg/kg; in the data set on female white mice (setting [2]), 20 mg/kg; in the data set with female white mice (setting [3]) it was 20 mg/kg; in the data set on female white mice (setting [4]) it was 20 mg/kg; with female white mice (read-out: Ptosis ED50, Table 1) it was 36 mg/kg; in the data set on female white mice (setting [5]), 200 mg/kg. Further, the ED50 was determined as 60 mg/kg with female white mice (setting [6]) and 36 mg/kg in the data set on female white mice (setting [7]). The LD50 at 24 h in “in vivo” is above 324 mg/kg.
As for `c1ccc(CCCCN2C[C@@H]3c4ccccc4[C@@H]4C[C@@]3(C2)c2ccccc24)cc1` (relative stereo) [Example 61, 2-(4-Phenylbutyl)-2,3,8,12b-tetrahydro-1H-3a,8-methanodibenzo[3,4:6,7]cyclohepta[1,2-c]pyrrole], the ED50 in data set [1] (po, Table 1, mice) was 5.6 mg/kg; with female white mice (setting [2]) it was 20 mg/kg; in the data set on female white mice (setting [3]), 20 mg/kg; in the data set with female white mice (setting [4]) it was 20 mg/kg; in the data set with female white mice (read-out: Ptosis ED50, Table 1), 36 mg/kg; in the data set with female white mice (setting [5]), above 324 mg/kg. In addition, the results for the ED50 with female white mice (setting [6]) and with female white mice (setting [7]) were 60 mg/kg and 36 mg/kg, respectively. In “in vivo”, the LD50 at 24 h was above 324 mg/kg.
In the case of `Nc1ccc2c(c1)[C@]13C[C@H]2c2ccccc2[C@H]1CN(CC1CCCC1)C3` (relative stereo) [Example 64, 5-Amino-2-cyclopentylmethyl-2,3,8,12b-tetrahydro-1H-3a, 8-methanodibenzo[3,4:6,7]cyclohepta[1,2-c]pyrrole Hydrochloride], the ED50 in data set [1] (po, Table III, mice) is 6.2 mg/kg; with female white mice (setting [8]) it was below 4 mg/kg; with female white mice (setting [9]), below 4 mg/kg; with female white mice (setting [10]), below 4 mg/kg; with female white mice (setting [11]), below 4 mg/kg; with female white mice (setting [12]), 200 mg/kg. Besides, the values for the ED50 in the data set on female white mice (setting [13]) and in the data set on female white mice (setting [14]) were 12 mg/kg and 7 mg/kg, respectively. This compound also gave an LD50 at 24 h in “in vivo” above 324 mg/kg.
Turning to `CC(=O)Nc1ccc2c(c1)[C@]13C[C@H]2c2ccccc2[C@H]1CN(CC1CCCC1)C3` (relative stereo) [Example 65, 5-Acetamido-2-cyclopentylmethyl-2,3,8,12b-tetrahydro1H-3a,8-methanodibenzo[3,4:6,7]cyclohepta[1,2-c]pyrrole Hydrochloride], the ED50 in data set [1] (po, Table III, mice) was 18 mg/kg; with female white mice (setting [8]), 60 mg/kg; in the data set with female white mice (setting [9]) it was 200 mg/kg; with female white mice (setting [10]), 60 mg/kg; with female white mice (setting [11]) it was 7 mg/kg; in the data set with female white mice (setting [12]), above 324 mg/kg. For the same compound, the ED50 in the data set with female white mice (setting [13]) came to 60 mg/kg; in the data set with female white mice (setting [14]), 36 mg/kg. Further, the LD50 at 24 h in “in vivo” came to 300 mg/kg.
On to `CC(=O)c1ccc2c(c1)[C@]13C[C@H]2c2ccccc2[C@H]1CN(CC1CCCC1)C3` (relative stereo) [Example 66, 5-Acetyl-2-cyclopentylmethyl-2,3,8,12b-tetrahydro-1H3a,8-methanodibenzo[3,4:6,7]cyclohepta[1,2-c]pyrrole Hydrochloride], for which the ED50 in data set [1] (po, Table III, mice) was 3.1 mg/kg; in the data set on female white mice (setting [8]) it was 12 mg/kg; in the data set on female white mice (setting [9]), 7 mg/kg; with female white mice (setting [10]), 12 mg/kg; in the data set with female white mice (setting [11]) it was below 4 mg/kg; in the data set on female white mice (setting [12]) it was 300 mg/kg. Also, the ED50 with female white mice (setting [13]) worked out at 20 mg/kg; in the data set on female white mice (setting [14]) it was 12 mg/kg. For the same compound, the LD50 at 24 h in “in vivo” was above 324 mg/kg.
As to `Oc1ccc2c(c1)[C@]13C[C@H]2c2ccccc2[C@H]1CN(CC1CCCC1)C3` (relative stereo) [Example 68, 5-Hydroxy-2-cyclopentylmethyl-2,3,8,12b-tetrahydro-1H-3a,8-methanodibenzo[3,4:6,7]cyclohepta[1,2-c]pyrrole Hydrochloride], the ED50 was 19 mg/kg in data set [1] (po, Table III, mice); 20 mg/kg in the data set on female white mice (setting [8]); 12 mg/kg in the data set with female white mice (setting [9]); 20 mg/kg in the data set on female white mice (setting [10]); 12 mg/kg with female white mice (setting [11]); above 324 mg/kg in the data set with female white mice (setting [12]). Further, the values for the ED50 in the data set with female white mice (setting [13]) and in the data set on female white mice (setting [14]) were 60 mg/kg and 36 mg/kg, respectively. The compound further had an LD50 at 24 h in the data set “in vivo” above 324 mg/kg.

The values above are taken from patent publication US4088772A, “Methanodibenzocycloheptapyrroles” (E. I. Du Pont de Nemours and Company, priority 1975, dated 1978).
